Where two headings read alike, the source gives them in different places.
Experiments:
sorbitol kinase [1] = molecular target: T1, sorbitol kinase (Enterobacter ludwigii, UniProt A0AAX3LD49); format: biochemical, Erwinia sp. SK-472-20; set-up: SK-472-20; conditions: for Relative activity as phosphate donor: activity for ATP (final concentration 2 mM) set as 100%
Experimental: One milliliter of a reaction mixture consisting of 0.2M Tris-HCl buffer solution (pH 8.5) 0.2 ml, 0.1M ATP 0.02 ml, 0.1M MgCl2 0.02 ml, 100 U/ml sorbitol-6-phosphate dehydrogenase (refer to referential example) 0.05 ml, 10 mM NAD 0.1 ml, 100 U/ml diaphorase (Asahi Chemical Ind. Co.) 0.05 ml, 0.25% NTB 0.1 ml, 1M sorbitol 0.1 ml, 10% Triton X-100 0.01 ml and distilled water 0.3 ml was pre-heated at 37° C. for 1 minute, and the enzyme solution 20 μl was added thereto, then the mixture was incubated for 10 minutes.
Reaction was terminated by adding 0.1N HCl 2 ml and optical density of the mixture was measured using 1.0 cm cell at 550 nm within 5 minutes (As). Also optical density of distilled water 20 μl in place of the enzyme solution was measured in the same manner as above as a blank test (Ab). Enzymatic activity is determined by difference in the absorption between the optical density of the enzyme solution (As) and the blank test (Ab), i.e. (As-Ab). A unit of enzyme activity is defined as an amount of enzyme which generate 1 μm of reduced NAD in one minutes at 37° C. and calculated by the following equation.
Enzyme activity (U/ml)=(As-AB)×0.795×dilution rate of enzyme

[2] = test system: sorbitol-6-phosphate dehydrogenase; format: biochemical, Comamonas sp. SY-77-1; conditions: for Relateive activity: 10 min; for Effect on sorbitol-6-phosphate dehydrogenase activity (in words): 1 mM metal ions; for Relative activity (5): substrate specificity of sorbitol-6-phosphate dehydrogenase, substance used as substrate
Experimental: Reaction mixture 1 ml consisting of 0.2M Tris-HCl buffer solution (pH 8.0) 0.25 ml, 0.1M sorbitol-6-phosphate 0.2 ml, 10 mM NAD 0.1 ml, 100 U/ml diaphorase (Asahi Chemical Industry Co.) 0.05 ml, 0.25% NTB (nitrotetrazolium blue) 0.1 ml, 10% Triton X-100 0.01 ml and distilled water 0.29 ml was pre-heated at 37° C. for 1 minute. 0.02 ml of enzyme solution was added thereto and incubated for 10 minutes.
0.1N HCl 2 ml was added to stop the reaction, and within 5 minutes optical absorption of the reaction mixture was measured using pass length 1.0 cm cell at 550 nm (As). Optical density of the blank solution of distilled water 0.02 ml in place of the enzyme solution was measured by the same procedure (Ab). Enzyme activity was measured by the difference (As-Ab) between the optical density of the enzyme solution (As) and that of the blank (Ab). A unit of enzyme is defined as an enzyme amount which produces 1μ mole of reduced NAD at 37° C. for 1 minute. Equation is as follows.
Enzyme activity (U/ml)=(As-Ab)×0.795×enzyme dilution rate

sorbitol kinase [3] = molecular target: T1, sorbitol kinase; format: biochemical, Erwinia sp. SK-472-20 gene expressed in E.coli; set-up: no tag mentioned; conditions: for Relative activity on substrate: sorbitol set at 100%
Experimental: A reaction mixture 1 ml consisting of 100 mM Tris-HCl buffer solution (pH 8.5), 2 mM ATP, 2 mM MgCl2, 5 unit/ml sorbitol-6-phosphatedehydrogenase (refer to referential example 3), 1 mM NAD, 5 units/ml diaphorase (Asahi Chem. Ind. Co.), 0.025% nitrotetrazolium blue, 100 mMD-sorbitol and 0.1% Triton X-100 was incubated with the aliqluot diluted sonicated microbial cells 20 μl at 37° C. for 10 minutes. Reaction was stopped by adding 0.1N HCl 2.0 ml and the optical absorption at 550 nm was measured for determination of sorbitol kinase activity. For control study, sonicated E.coli DH1 harboring pUC118 was treated by the same way as above to determine activity of sorbitol kinase. […] Accordingly, the transformant having sorbitol kinase activity was confirmed. […] SK-472-20, consequently the physico-chemical properties of expressed protein was confirmed.

[4] = substrate specificity of sorbitol kinase, substance used as substrate
[5] = 1 mM metal ion on sorbitol-6-phosphate dehydrogenase, None = 100
[6] = metal ion or chemical modifier 2 mM in the presence of 2 mM magnesium ion, None = 100
[7] = enzyme produced by transformant
[8] = sorbitol-6-phosphate dehydrogenase

T1 sequence (A0AAX3LD49 entry or part of it): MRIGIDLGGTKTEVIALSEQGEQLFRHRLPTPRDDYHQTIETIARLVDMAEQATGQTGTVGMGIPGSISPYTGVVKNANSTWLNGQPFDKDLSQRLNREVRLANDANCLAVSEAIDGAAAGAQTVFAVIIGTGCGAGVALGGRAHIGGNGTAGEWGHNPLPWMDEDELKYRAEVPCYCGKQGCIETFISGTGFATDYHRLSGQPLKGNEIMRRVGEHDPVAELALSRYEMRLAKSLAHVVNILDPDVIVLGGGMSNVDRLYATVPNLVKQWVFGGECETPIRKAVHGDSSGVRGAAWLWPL

With 2-deoxyglucose the “Relative activity (%)” value (sorbitol kinase [1]; [4]) was 0%.
`Nc1ncnc2c1ncn2[C@@H]1O[C@H](COP(=O)(O)OP(=O)(O)OP(=O)(O)O)[C@@H](O)[C@H]1O` [ATP] was tested, and the “Relative activity as phosphate donor” value (sorbitol kinase [1]) was 100%.
For `[Ba+2].[Cl-].[Cl-]` [BaCl2], the Relateive activity [2, 5] was 32.
`[Ca+2].[Cl-].[Cl-]` [CaCl2] was tested, and the Relateive activity [2, 5] was 100, the “Relative activity (%)” value (sorbitol kinase [1]; [6]) was 44.6% and the “Effect on enzyme activity (in words)” value (sorbitol kinase [3]; [7]) was “activated”.
In the case of `[Cl-].[Cl-].[Co+2]` [CoCl2], the Relateive activity [2, 5] is reported as 100, the “Effect on sorbitol kinase activity (in words)” value (sorbitol kinase [1]; 2 mM, Table 2) is reported as “inhibited” and the “Relative activity (%)” value (sorbitol kinase [1]; [6]) is reported as 17.3%. The “Effect on enzyme activity (in words)” value (sorbitol kinase [3]; [7]) was “inhibited”.
In the case of `[Cl-].[Cs+]` [CsCl], the Relateive activity [2, 5] is reported as 100 and the “Relative activity (%)” value (sorbitol kinase [1]; [6]) is reported as 85%.
In the case of `[Cl][Cu][Cl]` [CuCl2], the Relateive activity [2, 5] is reported as 0, the “Effect on sorbitol-6-phosphate dehydrogenase activity (in words)” value [2] is reported as “Strong inhibition” and the “Effect on sorbitol kinase activity (in words)” value (sorbitol kinase [1]; 2 mM, Table 2) is reported as “inhibited”. For the same molecule, the “Relative activity (%)” value (sorbitol kinase [1]; [6]) was 0% and the “Effect on enzyme activity (in words)” value (sorbitol kinase [3]; [7]) was “inhibited”.
`O=C(O)CN(CCN(CC(=O)O)CC(=O)O)CC(=O)O` [EDTA] was tested, and the “Effect on sorbitol kinase activity (in words)” value (sorbitol kinase [1]) was “inhibited” and the “Effect on enzyme activity (in words)” value (sorbitol kinase [3]) was “inhibited”.
In the case of `O=C(CO)[C@@H](O)[C@H](O)[C@H](O)CO` [Fructose], the “Relative activity (5)” value [2] is reported as 0 and the “Relative activity on substrate” value (sorbitol kinase [3]; [7]) is reported as 0%.
In the case of `Nc1nc2c(ncn2[C@@H]2O[C@H](COP(=O)(O)OP(=O)(O)OP(=O)(O)O)[C@@H](O)[C@H]2O)c(=O)[nH]1` [GTP], the “Relative activity as phosphate donor” value (sorbitol kinase [1]) is reported as 11.8%.
For `O=P(O)(O)OC1O[C@H](CO)[C@H](O)[C@H](O)[C@H]1O` (some centres unmarked) [Galactose-1-phosphate], the “Relative activity (5)” value [2] was 0.
With `O=P(O)(O)OC[C@H]1OC(O)[C@H](O)[C@@H](O)[C@@H]1O` (some centres unmarked) [Glucose-6-phosphate] the “Relative activity (5)” value [2] was 0.
With `O=c1[nH]cnc2c1ncn2[C@@H]1O[C@H](COP(=O)(O)OP(=O)(O)OP(=O)(O)O)[C@@H](O)[C@H]1O` [ITP] the “Relative activity as phosphate donor” value (sorbitol kinase [1]) was 40.5%.
With `O[C@H]1[C@H](O)[C@@H](O)[C@H](O)[C@@H](O)[C@H]1O` [Inositol] the “Relative activity on substrate” value (sorbitol kinase [3]; [7]) was 0%.
With `[Cl-].[K+]` [KCl] the Relateive activity [2, 5] was 100, the “Effect on sorbitol kinase activity (in words)” value (sorbitol kinase [1]; 2 mM, Table 2) was “activated” and the “Relative activity (%)” value (sorbitol kinase [1]; [6]) was 180%.
With `OC[C@H]1O[C@@H](O[C@H]2[C@H](O)[C@@H](O)C(O)O[C@@H]2CO)[C@H](O)[C@@H](O)[C@H]1O` (some centres unmarked) [Lactose] the “Relative activity (5)” value [2] was 0 and the “Relative activity on substrate” value (sorbitol kinase [3]; [7]) was 0%.
For `[Cl-].[Li+]` [LiCl], the Relateive activity [2, 5] was 100 and the “Relative activity (%)” value (sorbitol kinase [1]; [6]) was 74.3%.
For `OC[C@H]1O[C@H](O[C@H]2[C@H](O)[C@@H](O)[C@H](O)O[C@@H]2CO)[C@H](O)[C@@H](O)[C@@H]1O` [Maltose], the “Relative activity on substrate” value (sorbitol kinase [3]; [7]) was 0%.
`OC[C@@H](O)[C@@H](O)[C@H](O)[C@H](O)CO` [Mannitol] was tested, and the “Relative activity (5)” value [2] was 0.
`[Cl-].[Cl-].[Mg+2]` [MgCl2] showed a Relateive activity [2, 5] of 100.
Work on `[Cl][Mn][Cl]` [MnCl2] yielded a Relateive activity [2, 5] of 40.
`NC(=O)c1ccc[n+]([C@@H]2O[C@H](COP(=O)([O-])OP(=O)(O)OC[C@H]3O[C@@H](n4cnc5c(N)ncnc54)[C@H](O)[C@@H]3O)[C@@H](O)[C@H]2O)c1` [NAD] showed a Km [2, 8] of 130 ± 50 µM.
With `[Cl-].[Na+]` [NaCl] the Relateive activity ([2]; sorbitol-6-phosphate dehydrogenase, 1000 µM) was 100 and the “Relative activity (%)” value (sorbitol kinase [1]) was 112%.
In the case of `[N-]=[N+]=[N-].[Na+]` [NaN3], the “Relative activity (%)” value (sorbitol kinase [1]; [6]) is reported as 123%.
`[Cl][Ni][Cl]` [NiCl2] was tested, and the Relateive activity [2, 5] was 100, the “Effect on sorbitol kinase activity (in words)” value (sorbitol kinase [1]; 2 mM, Table 2) was “inhibited” and the “Relative activity (%)” value (sorbitol kinase [1]; [6]) was 14.5%. The “Effect on enzyme activity (in words)” value (sorbitol kinase [3]; [7]) was “inhibited”.
`[Cl][Pb][Cl]` [PbCl2] was tested, and the Relateive activity [2, 5] was 2 and the “Effect on sorbitol-6-phosphate dehydrogenase activity (in words)” value [2] was “Strong inhibition”.
`OC[C@H]1O[C@@](CO)(O[C@H]2O[C@H](CO)[C@@H](O)[C@H](O)[C@H]2O)[C@@H](O)[C@@H]1O` [Saccharose] was tested, and the “Relative activity (5)” value [2] was 0 and the “Relative activity on substrate” value (sorbitol kinase [3]; [7]) was 0%.
`OC[C@@H](O)[C@@H](O)[C@H](O)[C@@H](O)CO` [Sorbitol] was tested, and the “Relative activity on substrate” value (sorbitol kinase [3]; [7]) was 100%.
With `OC[C@H]1O[C@H](O[C@H]2O[C@H](CO)[C@@H](O)[C@H](O)[C@H]2O)[C@H](O)[C@@H](O)[C@@H]1O` [Treharose] the “Relative activity (5)” value [2] was 0.
In the case of `O=c1ccn([C@@H]2O[C@H](COP(=O)(O)OP(=O)(O)OP(=O)(O)O)[C@@H](O)[C@H]2O)c(=O)[nH]1` [UTP], the “Relative activity as phosphate donor” value (sorbitol kinase [1]) is reported as 3.6%.
`[Cl-].[Cl-].[Zn+2]` [ZnCl2] was tested, and the Relateive activity [2, 5] was 6.
`O=C(COP(=O)(O)O)[C@@H](O)[C@H](O)[C@H](O)COP(=O)(O)O` [fructose-1,6-diphosphate] was tested, and the “Relative activity (5)” value [2] was 0.
`O=P(O)(O)OC[C@H]1OC(O)[C@H](O)[C@@H](O)[C@H]1O` (some centres unmarked) [galactose-6-phosphate] was tested, and the “Relative activity (5)” value [2] was 0.
In the case of `O=P(O)(O)OC1O[C@H](CO)[C@@H](O)[C@H](O)[C@H]1O` (some centres unmarked) [glucose-1-phosphate], the “Relative activity (5)” value [2] is reported as 0.
For `C=C(OP(=O)(O)O)C(=O)O` [phosphoenolpyruvate], the “Utilization as phosphate donor” value (sorbitol kinase [1]; phosphoenolpyruvate used in place of ATP in the enzyme assay) was “No substantial utilization” and the “Utilization as phosphate donor” value (sorbitol kinase [3]; [7]) was “substantially not”.
`O=P(O)(O)OC[C@@H](O)[C@@H](O)[C@H](O)[C@@H](O)CO` [sorbitol-6-phosphate] was tested, and the Km [2, 8] was 2000 ± 500 µM and the “Relative activity (5)” value [2] was 100.
In the case of `NC(=S)c1ccc[n+]([C@@H]2O[C@H](COP(=O)([O-])OP(=O)(O)OC[C@H]3O[C@@H](n4cnc5c(N)ncnc54)[C@H](O)[C@@H]3O)[C@@H](O)[C@H]2O)c1` [thio NAD], the Km [2, 8] is reported as 140 ± 50 µM.
Galactose was tested, and the “Relative activity (5)” value [2] was 0, the “Relative activity (%)” value (sorbitol kinase [1]; [4]) was 0% and the “Relative activity on substrate” value (sorbitol kinase [3]; [7]) was 0%.
With Glucose the “Relative activity (5)” value [2] was 0, the “Relative activity (%)” value (sorbitol kinase [1]; [4]) was 0% and the “Relative activity on substrate” value (sorbitol kinase [3]; [7]) was 0%.
In the case of Mannose, the “Relative activity (5)” value [2] is reported as 0, the “Relative activity (%)” value (sorbitol kinase [1]; [4]) is reported as 0% and the “Relative activity on substrate” value (sorbitol kinase [3]; [7]) is reported as 0%.
In the case of Xylose, the “Relative activity (%)” value (sorbitol kinase [1]; [4]) is reported as 0%.

Reference: patent US5843750A, “Sorbitol kinase, process for producing the same, and substantially pure microorganism” (priority 1994, dated 1998)
